Laboratory results from ChEMBL document CHEMBL2029217, “Design, synthesis, and structure-activity relationships of novel spiro-piperidines as acetyl-CoA carboxylase inhibitors” (Bioorg Med Chem Lett, 2012).

Assays:
[1] = molecular target: Acetyl-CoA carboxylase 2 (Homo sapiens, UniProt O00763); assay: Inhibition of human ACC2 using acetyl-coA as substrate incubated for 60 mins prior to substrate addition measured after 20 mins by malachite green assay
[2] = Lipophilicity, log D of the compound at pH 7.4; conditions: buffer
[3] = molecular target: Acetyl-CoA carboxylase 1 (Homo sapiens, UniProt Q13085); assay: Inhibition of human ACC1 using acetyl-coA as substrate incubated for 60 mins prior to substrate addition measured after 20 mins by malachite green assay
[4] = Clearance in human hepatic microsomes assessed per mg protein at 1 uM after 20 mins by HPLC analysis; assay type: ADME, Microsome; conditions: liver microsomes, read-out: CLH
[5] = Total clearance in Crl:CD(SD)(IGS) rat at 1 mg/kg, iv; assay type: ADME, organism-based; design: dose 1 mg/kg, route intravenous; conditions: in vivo
[6] = Oral bioavailability in Crl:CD(SD)(IGS) rat at 3 mg/kg; assay type: ADME, organism-based; conditions: in vivo
[7] = AUC in Crl:CD(SD)(IGS) rat at 3 mg/kg, po; assay type: ADME, organism-based; design: dose 3 mg/kg, route oral; conditions: plasma
[8] = Cmax in Crl:CD(SD)(IGS) rat at 3 mg/kg, po; assay type: ADME, organism-based; design: dose 3 mg/kg, route oral; conditions: in vivo
[9] = Tmax in Crl:CD(SD)(IGS) rat at 3 mg/kg, po; assay type: ADME, organism-based; design: dose 3 mg/kg, route oral; conditions: in vivo
[10] = Mean residence time in Crl:CD(SD)(IGS) rat at 1 mg/kg, iv; assay type: ADME, organism-based; design: dose 1 mg/kg, route intravenous; conditions: in vivo
[11] = Volume of distribution at steady state in Crl:CD(SD)(IGS) rat at 1 mg/kg, iv; assay type: ADME, organism-based; design: dose 1 mg/kg, route intravenous; conditions: in vivo, read-out: Vdss

Sequence of Acetyl-CoA carboxylase 2 (O00763 whole entry): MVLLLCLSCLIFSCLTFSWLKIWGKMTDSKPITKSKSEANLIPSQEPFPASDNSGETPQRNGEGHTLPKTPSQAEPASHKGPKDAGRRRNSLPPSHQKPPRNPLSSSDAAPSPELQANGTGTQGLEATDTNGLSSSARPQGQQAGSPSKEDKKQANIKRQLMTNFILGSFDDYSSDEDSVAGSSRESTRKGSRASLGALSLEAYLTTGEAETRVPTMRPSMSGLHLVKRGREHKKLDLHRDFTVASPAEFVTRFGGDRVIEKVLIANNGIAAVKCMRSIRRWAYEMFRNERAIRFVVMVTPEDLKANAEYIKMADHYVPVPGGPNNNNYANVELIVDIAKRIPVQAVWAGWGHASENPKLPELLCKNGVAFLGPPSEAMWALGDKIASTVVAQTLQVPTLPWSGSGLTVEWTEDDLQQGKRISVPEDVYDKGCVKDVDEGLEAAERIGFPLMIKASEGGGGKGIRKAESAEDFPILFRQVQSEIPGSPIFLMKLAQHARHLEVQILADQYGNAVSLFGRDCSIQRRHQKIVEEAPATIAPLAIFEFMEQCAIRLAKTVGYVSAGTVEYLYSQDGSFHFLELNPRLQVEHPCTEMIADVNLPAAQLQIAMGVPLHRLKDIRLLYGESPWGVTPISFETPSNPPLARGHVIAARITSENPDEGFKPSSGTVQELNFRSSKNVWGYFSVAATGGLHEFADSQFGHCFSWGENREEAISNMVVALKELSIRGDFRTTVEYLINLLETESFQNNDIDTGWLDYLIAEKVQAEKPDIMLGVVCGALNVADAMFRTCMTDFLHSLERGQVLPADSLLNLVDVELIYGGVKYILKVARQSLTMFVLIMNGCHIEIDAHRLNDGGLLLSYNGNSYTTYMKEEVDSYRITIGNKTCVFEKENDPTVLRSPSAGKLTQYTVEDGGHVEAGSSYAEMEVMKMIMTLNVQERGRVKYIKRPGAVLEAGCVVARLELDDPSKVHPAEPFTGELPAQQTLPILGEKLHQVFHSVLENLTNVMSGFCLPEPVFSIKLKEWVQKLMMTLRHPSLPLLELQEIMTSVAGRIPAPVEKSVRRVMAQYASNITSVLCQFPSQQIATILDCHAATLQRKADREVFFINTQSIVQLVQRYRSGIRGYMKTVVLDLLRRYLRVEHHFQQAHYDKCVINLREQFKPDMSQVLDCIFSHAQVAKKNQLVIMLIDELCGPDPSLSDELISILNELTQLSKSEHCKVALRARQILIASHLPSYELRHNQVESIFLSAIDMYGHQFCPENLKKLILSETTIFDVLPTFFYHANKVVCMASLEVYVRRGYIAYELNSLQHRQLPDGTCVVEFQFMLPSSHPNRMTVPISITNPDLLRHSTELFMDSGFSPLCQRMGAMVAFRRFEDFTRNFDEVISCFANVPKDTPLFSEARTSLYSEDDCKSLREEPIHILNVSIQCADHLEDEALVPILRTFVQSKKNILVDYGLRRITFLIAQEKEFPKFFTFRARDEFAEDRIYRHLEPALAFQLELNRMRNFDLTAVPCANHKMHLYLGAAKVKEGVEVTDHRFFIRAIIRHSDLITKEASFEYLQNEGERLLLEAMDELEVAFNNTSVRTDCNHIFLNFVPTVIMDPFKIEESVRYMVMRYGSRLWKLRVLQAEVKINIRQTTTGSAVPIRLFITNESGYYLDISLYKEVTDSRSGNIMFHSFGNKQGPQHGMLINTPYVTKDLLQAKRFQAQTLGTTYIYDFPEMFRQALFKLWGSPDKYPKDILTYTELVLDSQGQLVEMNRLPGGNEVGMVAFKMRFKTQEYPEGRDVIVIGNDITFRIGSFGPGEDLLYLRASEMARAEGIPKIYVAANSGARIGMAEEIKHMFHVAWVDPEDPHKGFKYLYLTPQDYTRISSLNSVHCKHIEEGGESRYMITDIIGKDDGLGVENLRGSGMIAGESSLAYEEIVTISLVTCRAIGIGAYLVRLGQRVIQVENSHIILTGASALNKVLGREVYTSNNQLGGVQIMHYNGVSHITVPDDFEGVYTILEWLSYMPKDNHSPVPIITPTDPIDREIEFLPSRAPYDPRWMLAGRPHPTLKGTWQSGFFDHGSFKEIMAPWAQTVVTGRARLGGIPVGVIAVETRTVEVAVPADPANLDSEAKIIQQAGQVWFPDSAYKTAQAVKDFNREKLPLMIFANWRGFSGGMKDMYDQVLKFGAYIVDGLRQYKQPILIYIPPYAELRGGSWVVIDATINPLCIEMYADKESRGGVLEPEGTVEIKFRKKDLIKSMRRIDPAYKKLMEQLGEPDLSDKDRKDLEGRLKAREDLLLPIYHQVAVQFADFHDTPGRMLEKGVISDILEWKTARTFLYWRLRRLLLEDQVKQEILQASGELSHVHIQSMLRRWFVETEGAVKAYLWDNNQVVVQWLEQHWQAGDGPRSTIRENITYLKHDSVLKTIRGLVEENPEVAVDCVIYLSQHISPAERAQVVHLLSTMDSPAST

| SMILES | IC50 [1] [nM] | logD [2] | IC50 [3] [nM] | microsomal CLint at 1 µM [4] [µL/min/mg] | clearance [5] [mL/min/kg] | bioavailability [6] [%] | AUC [7] [ng·h/mL] | Cmax [8] [ng/mL] | Tmax [9] [min] | MRT [10] [h] | Vd [11] [L/kg] |
| --- | --- | --- | --- | --- | --- | --- | --- | --- | --- | --- | --- |
| CCNC(=O)Nc1sc2nc(C)ccc2c1C(=O)N1CCC(N2CCCC3(C2)CC(C)(C)OC3=O)CC1 (racemic) | 14 | 2.49 | 78 | 79 | – | – | – | – | – | – | – |
| CCNC(=O)Nc1sc2nc(C)ccc2c1C(=O)N1CCC(N2CCCC3(C2)OC(=O)N(C(C)C)C3=O)CC1 (stereo not given) | 15 | 2.39 | 160 | 38 | – | – | – | – | – | – | – |
| CCNC(=O)Nc1sc2ccccc2c1C(=O)N1CCC(N2CCCC3(CCNC3=O)C2)CC1 (racemic) | 79 | 2.06 | 650 | 35 | – | – | – | – | – | – | – |
| CNC(=O)Nc1sc2nc(C)ccc2c1C(=O)N1CCC(N2CCC[C@@]3(C2)CC(C)(C)OC3=O)CC1 | 4.4 | 2.18 | 48 | 90 | – | – | – | – | – | – | – |
| CCN1C(=O)OC2(CCCN(C3CCN(C(=O)c4c(NC(N)=O)sc5ccccc45)CC3)C2)C1=O (racemic) | – | 1.85 | – | 41 | – | – | – | – | – | – | – |
| CCNC(=O)Nc1sc2ccccc2c1C(=O)N1CCC(N2CCCC3(C2)CC(C)(C)OC3=O)CC1 (racemic) | – | 3.01 | – | 180 | – | – | – | – | – | – | – |
| CCNC(=O)Nc1sc2ccccc2c1C(=O)N1CCC(N2CCCC3(C2)C(=O)N(CC)C(=O)N3C)CC1 (racemic) | 51 | 2.79 | 360 | 190 | – | – | – | – | – | – | – |
| CCN1C(=O)C2(CCCN(C3CCN(C(=O)c4c(NC(N)=O)sc5ccccc45)CC3)C2)N=C1C(C)C (racemic) | 17 | 2.43 | 80 | 230 | – | – | – | – | – | – | – |
| CCNC(=O)Nc1sc2ccccc2c1C(=O)N1CCC(N2CCCC3(CCN(C)C3=O)C2)CC1 (racemic) | 64 | 2.23 | 510 | 45 | – | – | – | – | – | – | – |
| CCNC(=O)Nc1sc2ccccc2c1C(=O)N1CCC(N2CCCC3(CC(=O)N(CC)C3=O)C2)CC1 (racemic) | 32 | – | 230 | 130 | – | – | – | – | – | – | – |
| CCNC(=O)Nc1sc2nc(C)ccc2c1C(=O)N1CCC(N2CCCC3(C2)NC(=O)N(C(C)C)C3=O)CC1 (racemic) | 17 | 2.39 | 150 | 26 | – | – | – | – | – | – | – |
| CCNC(=O)Nc1sc2ccccc2c1C(=O)N1CCC(N2CCC[C@@]3(C2)CC(C)(C)OC3=O)CC1 | – | 3.01 | – | 230 | – | – | – | – | – | – | – |
| CCNC(=O)Nc1sc2ccccc2c1C(=O)N1CCC(N2CCCC3(C2)OC(=O)N(CC)C3=O)CC1 (racemic) | 40 | 2.47 | 190 | 98 | – | – | – | – | – | – | – |
| CCNC(=O)Nc1sc2ccccc2c1C(=O)N1CCC(N2CCCC3(C2)NC(=O)N(CC)C3=O)CC1 (racemic) | 22 | 2.44 | 280 | 110 | – | – | – | – | – | – | – |
| CCNC(=O)Nc1sc2ncccc2c1C(=O)N1CCC(N2CCCC3(C2)CC(C)(C)OC3=O)CC1 (racemic) | 16 | 2.08 | 110 | 110 | – | – | – | – | – | – | – |
| CNC(=O)Nc1sc2nc(C)ccc2c1C(=O)N1CCC(N2CCC[C@]3(CC(=O)N(C(C)C)C3=O)C2)CC1 | 8.5 | 2.51 | 160 | 33 | 15.8 | 45 | 1400 | 440 | 30 | 1.3 | 1.3 |
| CCNC(=O)Nc1sc2ccccc2c1C(=O)N1CCC(N2CCCC3(CCN(CC)C3=O)C2)CC1 (racemic) | 33 | 2.62 | 350 | 71 | – | – | – | – | – | – | – |
| CCNC(=O)Nc1sc2nc(C)ccc2c1C(=O)N1CCC(N2CCC[C@]3(CCN(C(C)C)C3=O)C2)CC1 | 9 | 2.43 | 93 | 45 | – | – | – | – | – | – | – |
| CCNC(=O)Nc1sc2nccnc2c1C(=O)N1CCC(N2CCCC3(C2)CC(C)(C)OC3=O)CC1 (racemic) | 37 | 2.32 | 150 | 110 | – | – | – | – | – | – | – |
| CNC(=O)Nc1sc2ccccc2c1C(=O)N1CCC(N2CCCC3(CCN(C(C)C)C3=O)C2)CC1 (racemic) | 18 | 2.61 | 120 | 66 | – | – | – | – | – | – | – |
| CCN1C(=O)CC2(CCCN(C3CCN(C(=O)c4c(NC(N)=O)sc5ccccc45)CC3)C2)C1=O (stereo not given) | 23 | 2.2 | 350 | 64 | – | – | – | – | – | – | – |
| CCNC(=O)Nc1sc2nc(C)ccc2c1C(=O)N1CCC(N2CCCC3(C2)N=C(C)N(C(C)C)C3=O)CC1 (stereo not given) | 15 | 2.27 | 76 | 47 | – | – | – | – | – | – | – |
| CCC1=NC2(CCCN(C3CCN(C(=O)c4c(NC(N)=O)sc5ccccc45)CC3)C2)C(=O)N1CC (racemic) | 43 | 2.09 | 410 | 150 | – | – | – | – | – | – | – |
| CCNC(=O)Nc1sc2cccnc2c1C(=O)N1CCC(N2CCCC3(C2)CC(C)(C)OC3=O)CC1 (racemic) | 27 | 2.45 | 150 | 120 | – | – | – | – | – | – | – |
| CCN1C(=O)C2(CCCN(C3CCN(C(=O)c4c(NC(N)=O)sc5ccccc45)CC3)C2)N=C1C (racemic) | 75 | 1.77 | 300 | 60 | – | – | – | – | – | – | – |
